For orientation: DC50 means the midpoint of the concentration-degradation curve.

The structures appear in SMILES notation.

14 compounds from patent US12161722B2, “Bifunctional heterocyclic compound having BTK degradation function via ubiquitin proteasome pathway, and use thereof” (KOREA RESEARCH INSTITUTE OF CHEMICAL TECHNOLOGY, priority 2021, dated 2024) can be followed below.

The target in this experiment is T1, WT BTK protein (Homo sapiens, UniProt Q06187).
T1 construct: measured for intracellular BTK protein levels by Western blotting; endogenous in cells; host or cells: TMD-8 or RAMOS cells
T1 sequence (Q06187 whole entry): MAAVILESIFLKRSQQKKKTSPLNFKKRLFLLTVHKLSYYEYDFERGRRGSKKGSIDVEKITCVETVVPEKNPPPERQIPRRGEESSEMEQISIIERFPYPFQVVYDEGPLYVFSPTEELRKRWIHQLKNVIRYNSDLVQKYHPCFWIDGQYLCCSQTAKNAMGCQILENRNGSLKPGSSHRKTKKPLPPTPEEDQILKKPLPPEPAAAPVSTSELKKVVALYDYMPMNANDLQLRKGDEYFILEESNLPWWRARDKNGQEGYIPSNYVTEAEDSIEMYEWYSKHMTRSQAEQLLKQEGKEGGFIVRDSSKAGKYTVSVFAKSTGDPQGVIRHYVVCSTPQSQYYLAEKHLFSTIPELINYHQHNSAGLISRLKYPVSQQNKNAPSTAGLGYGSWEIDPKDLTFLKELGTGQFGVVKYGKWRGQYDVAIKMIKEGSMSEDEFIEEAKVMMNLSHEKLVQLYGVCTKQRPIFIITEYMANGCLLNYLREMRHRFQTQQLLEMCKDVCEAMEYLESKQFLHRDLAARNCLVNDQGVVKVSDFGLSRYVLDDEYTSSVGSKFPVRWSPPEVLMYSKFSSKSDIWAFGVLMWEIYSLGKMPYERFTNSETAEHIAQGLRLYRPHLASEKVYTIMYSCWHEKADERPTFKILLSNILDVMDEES
As to the kind of experiment: BTK protein degradation assay (Western blotting), WT BTK. The experiment is classed as cell-based. Conditions: concentration range accounting for 50% degradation of WT BTK protein, TMD-8 or RAMOS cells, 24 hours. The procedure:
TMD-8, RAMOS, or 293T BTK MUT (C481S) cells were treated with the synthesized compounds and measured for intracellular BTK protein levels by Western blotting. The protocol of the experiment using TMD-8 cells is as follows.
TMD-8 cells were resuspended in an RPMI1640 medium (Hyclone, SH30027.01, 10% FBS (Hyclone, SV30207.02), 1% penicillin-streptomycin (Welgene, LS 202-02) and the cell suspension was seeded at a density of 1×10^6 cells/mL in an amount of 1 mL per well into 12-well plates.
The 12-well plates were treated as follows. A 10 mM stock was 1/10 diluted in series with DMSO ([…]) to form final concentrations of 10, 1, 0.1, 0.01, 0.001, and 0.0001 mM. The compounds with such concentrations were applied to cells, followed by harvesting the cells 24 hours later. For a negative control, a 1/10 dilution of DMSO in the medium (3 mL DMSO+27 mL medium) was used.
The 1-mL cell culture in each well was passed many times through a pipette and then transferred into a 1.5-mL microtube before centrifugation (500 g, 5 min, 4° C.). The supernatant was discarded and the cell pellet was washed with PBS. After centrifugation (500 g, 5 min, 4° C.) again, the supernatant was discarded and the cell pellet was taken.
A lysis buffer was prepared as follows. RIPA buffer (Biosesang, RC2038-050-00)+0.5 mM PMSF (SIGMA, P7626)+1×Protease/Phosphatase Inhibitor (Cell signaling, 5872S) was added in an amount […] per well and left for 30 minutes on ice (vortexing at 0 and 30 minutes) before sonication (5 cycles of pulse for 10 seconds and rest for 30 seconds, 70% amplification). The supernatant obtained by centrifugation (15000 g, 15 min, 4° C.) was transferred into a new microtube. Cells in each well of 96-well plates were 1/2 diluted with the RIPA buffer and incubated at 37° C. for 30 minutes with […] of a 50:1 mixture of BCA reagents A and B in BCA Protein Assay Kit (iNtRON, 21071). After being cooled for 10 minutes, the 96-well plates were measured for absorbance at 562 nm on the BioTek, SYNERGY H1 microplate reader. Samples were prepared by protein quantification based on the absorbance measurements and then boiled at 70° C. for 10 minutes. The sample buffer used in the case was prepared by mixing a NuPAGE or a Bolt 4× sample buffer (Invitrogen) and its 10× sample reducing agent depending on the gel to be used, and protein dilution was made in a RIPI buffer.
The samples were loaded in the same amount into a NuPAGE or Bolt Bis-tris 4-12% gradient gel and allowed to run therein (200 V, 35 minutes). The separated proteins were transferred onto a […] NC membrane, using Trans-blot Turbo (BIO-RAD) (1.3 A constant, 25V limit, 15 minutes). The membrane was blocked at room temperature for 1 hour with skim milk or Intercept Blocking Buffer (LI-COR, 927-60001):0.1% TBST=1:1. The membrane was incubated with Anti BTK Rabbit (1:1,000 in 5% skim milk/0.2% TBST, size: 77 kDa, Cell signaling Technology) at 4° C. overnight O/N or at room temperature for 2 hours and with Anti GAPDH Rabbit (1:10,000 in 5% BSA/0.2% TBST, size: 36 kDa, GENETEX) and Anti β-actin mouse (1:10,000 in 5% BSA/0.2% TBST, RT, size: 43 kDa, GENETEX) at room temperature for 1 or 3 hours. Then, the membrane was washed three times with 0.5% TBST for 5 minutes each time before incubation with the second antibody Anti-Rabbit IgG (1:5,000 in 5% Skim milk/TBST, CST), IRDye® 800CW Goat anti-Rabbit IgG Secondary Antibody (1:10,000 in 5% skim/TBST, RT 45 min), or IRDye® 680RD Goat anti-Mouse IgG Secondary Antibody (1:10,000 in 5% skim/TBST, RT 45 min) for 45 minutes at room temperature in a rocker. The membrane was washed five times with 0.5% TBST for 5 minutes in each time, followed by detection with LI-COR, Odyssey. In this regard, the detection proceeded, as it was, for house-keeping genes while using SuperSignal West Pico PLUS Chemiluminescent Substrate or SuperSignal West femto Maximum Sensitivity Substrate for BTK detection. […]

In the case of `Cc1cccc(C)c1Nc1nn(C)c2nc(Nc3ccc4c(c3)CN(C(=O)CNc3ccc5c(c3)CN(C3CCC(=O)NC3=O)C5=O)CC4)ncc12` (centres unmarked) [Compound 81, 3-(5-((2-(7-((3-((2,6-Dimethylphenyl)amino)-1-methyl-1H-pyrazolo[3,4-d]pyrimidin-6-yl)amino)-3,4-dihydroisoquinolin-2 (1H)-yl)-2-oxoethyl)amino)-1-oxoisoindolin-2-yl)piperidin-2,6-one], the half-maximal degradation concentration (DC50) lay within 0.1 to 10 nM.

Regarding `Cn1nc(Nc2c(Cl)cccc2Cl)c2cnc(Nc3ccc4c(c3)CN(CC3CCN(c5ccc6c(c5)C(=O)N(C5CCC(=O)NC5=O)C6=O)CC3)CC4)nc21` (centres unmarked) [Compound 82, 5-(4-((7-((3-((2,6-Dichlorophenyl)amino)-1-methyl-1H-pyrazolo[3,4-d]pyrimidin-6-yl)amino)-3,4-dihydroisoquinolin-2 (1H)-yl)methyl)piperidin-1-yl)-2-(2,6-dioxopiperidin-3-yl)isoindoline-1,3-dione], the DC50 was 0.1 to 10 nM.

With `Cc1ccc(Nc2nn(C)c3nc(Nc4ccc5c(c4)CN(CC4CCN(c6ccc7c(c6)C(=O)N(C6CCC(=O)NC6=O)C7=O)CC4)CC5)ncc23)c(C)c1` (centres unmarked) [Compound 83, 5-(4-((7-((3-((2,4-Dimethylphenyl)amino)-1-methyl-1H-pyrazolo[3,4-d]pyrimidin-6-yl)amino)-3,4-dihydroisoquinolin-2 (1H)-yl)methyl)piperidin-1-yl)-2-(2,6-dioxopiperidin-3-yl)isoindoline-1,3-dione], the DC50 lay within 10 to 1000 nM.

For the compound `Cc1ccccc1Nc1nn(C)c2nc(Nc3ccc4c(c3)CN(CC3CCN(c5ccc6c(c5)C(=O)N(C5CCC(=O)NC5=O)C6=O)CC3)CC4)ncc12` (centres unmarked) [Compound 84, 2-(2,6-Dioxopiperidin-3-yl)-5-(4-((7-((1-methyl-3-(o-tolylamino)-1H-pyrazolo[3,4-d]pyrimidin-6-yl)amino)-3,4-dihydroisoquinolin-2 (1H)-yl)methyl)piperidin-1-yl)isoindoline-1,3-dione], the DC50 lay in the range of 0.1 to 10 nM.

As to `Cc1cccc(C)c1Nc1nn(C(C)C)c2nc(Nc3ccc4c(c3)CN(CC3CCN(c5ccc6c(c5)C(=O)N(C5CCC(=O)NC5=O)C6=O)CC3)CC4)ncc12` (centres unmarked) [Compound 86, 5-(4-((7-((3-((2,6-Dimethylphenyl)amino)-1-isopropyl-1H-pyrazolo[3,4-d]pyrimidin-6-yl)amino)-3,4-dihydroisoquinolin-2 (1H)-yl)methyl)piperidin-1-yl)-2-(2,6-dioxopiperidin-3-yl)isoindoline-1,3-dione], the DC50 fell in the range of 0.1 to 10 nM.

As to `Cc1cccc(C)c1Nc1nn(C)c2nc(Nc3ccc4c(c3)CN(CC3CCN(CC(=O)Nc5ccc6c(c5)C(=O)N(C5CCC(=O)NC5=O)C6=O)CC3)CC4)ncc12` (centres unmarked) [Compound 90, 2-(4-((7-((3-((2,6-Dimethylphenyl)amino)-1-methyl-1H-pyrazolo[3,4-d]pyrimidin-6-yl)amino)-3,4-dihydroisoquinolin-2 (1H)-yl)methyl)piperidin-1-yl)-N-(2-(2,6-dioxopiperidin-3-yl)-1,3-dioxoisoindolin-5-yl)acetamide], the DC50 is 10 to 1000 nM.

On to `Cc1cccc(C)c1Nc1nn(C)c2nc(Nc3ccc4c(c3)CN(CC3CCN(CC(=O)Nc5ccc6c(c5)CN(C5CCC(=O)NC5=O)C6=O)CC3)CC4)ncc12` (centres unmarked) [Compound 91, 2-(4-((7-((3-((2,6-Dimethylphenyl)amino)-1-methyl-1H-pyrazolo[3,4-d]pyrimidin-6-yl)amino)-3,4-dihydroisoquinolin-2 (1H)-yl)methyl)piperidin-1-yl)-N-(2-(2,6-dioxopiperidin-3-yl)-1-oxoisoindolin-5-yl)acetamide], for which the DC50 is 0.1 to 10 nM.

With `Cc1cccc(C)c1Nc1nn(C)c2nc(Nc3ccc4c(c3)CN(CC3CCN(C(=O)Nc5ccc6c(c5)CN(C5CCC(=O)NC5=O)C6=O)CC3)CC4)ncc12` (centres unmarked) [Compound 92, 4-((7-((3-((2,6-Dimethylphenyl)amino)-1-methyl-1H-pyrazolo[3,4-d]pyrimidin-6-yl)amino)-3,4-dihydroisoquinolin-2 (1H)-yl)methyl)-N-(2-(2,6-dioxopiperidin-3-yl)-1-oxoisoindolin-5-yl)piperidine-1-carboxamide], the half-maximal degradation concentration (DC50) was 0.1 to 10 nM.

`Cc1cccc(C)c1Nc1nn(C)c2nc(Nc3ccc4c(c3)CN(C(=O)CN3CCN(c5ccc6c(c5)C(=O)N(C5CCC(=O)NC5=O)C6=O)CC3)CC4)ncc12` (centres unmarked) [Compound 93, 5-(4-(2-(7-((3-((2,6-dimethylphenyl)amino)-1-methyl-1H-pyrazolo [3,4-d]pyrimidin-6-yl)amino)-3,4-dihydroisoquinolin-2 (1H)-yl)-2-oxoethyl)piperazin-1-yl)-2-(2,6-dioxopiperidin-3-yl)isoindoline-1,3-dione]: the half-maximal degradation concentration (DC50) lay within 10 to 1000 nM.

Consider `Cc1cccc(C)c1Nc1nn(C)c2nc(Nc3ccc4c(c3)CN(CC(=O)NCc3ccc5c(c3)CN(C3CCC(=O)NC3=O)C5=O)CC4)ncc12` (centres unmarked) [Compound 94, 2-(7-((3-((2,6-dimethylphenyl)amino)-1-methyl-1H-pyrazolo[3,4-d]pyrimidin-6-yl)amino)-3,4-dihydroisoquinolin-2 (1H)-yl)-N-((2-(2,6-dioxopiperidin-3-yl)-1-oxoisoindolin-5-yl)methyl)acetamide], for which the DC50 was in the range of 10 to 1000 nM.

Take `Cc1cccc(C)c1Nc1nn(C)c2nc(Nc3ccc4c(c3)CN(CC(=O)N3CCN(c5ccc6c(c5)C(=O)N(C5CCC(=O)NC5=O)C6=O)CC3)CC4)ncc12` (centres unmarked) [Compound 95, 5-(4-(2-(7-((3-((2,6-dimethylphenyl)amino)-1-methyl-1H-pyrazolo[3,4-d]pyrimidin-6-yl)amino)-3,4-dihydroisoquinolin-2 (1H)-yl)acetyl)piperazin-1-yl)-2-(2,6-dioxopiperidin-3-yl)isoindoline-1,3-dione]: the DC50 is 10 to 1000 nM.

Regarding `Cc1cccc(C)c1Nc1nn(C)c2nc(Nc3ccc4c(c3)CN(C(=O)Nc3ccc5c(c3)CN(C3CCC(=O)NC3=O)C5=O)CC4)ncc12` (centres unmarked) [Compound 96, 7-((3-((2,6-dimethylphenyl)amino)-1-methyl-1H-pyrazolo[3,4-d]pyrimidin-6-yl)amino)-N-(2-(2,6-dioxopiperidin-3-yl)-1-oxoisoindolin-5-yl)-3,4-dihydroisoquinoline-2 (1H)-carboxamide], the DC50 lay within 0.1 to 10 nM.

On to `Cc1cccc(C)c1Nc1nn(C)c2nc(Nc3ccc4c(c3)CN(CC(=O)NC3CCN(c5ccc6c(c5)C(=O)N(C5CCC(=O)NC5=O)C6=O)CC3)CC4)ncc12` (centres unmarked) [Compound 97, 2-(7-((3-((2,6-dimethylphenyl)amino)-1-methyl-1H-pyrazolo[3,4-d]pyrimidin-6-yl)amino)-3,4-dihydroisoquinolin-2 (1H)-yl)-N-(1-(2-(2,6-dioxopiperidin-3-yl)-1,3-dioxoisoindolin-5-yl)piperidin-4-yl)acetamide], for which the DC50 lay within 0.1 to 10 nM.

As to `Cc1cccc(C)c1Nc1nn(C)c2nc(Nc3ccc4c(c3)CN(C(=O)CNCc3ccc5c(c3)CN(C3CCC(=O)NC3=O)C5=O)CC4)ncc12` (centres unmarked) [Compound 98, 3-(5-(((2-(7-((3-((2,6-Dimethylphenyl)amino)-1-methyl-1H-pyrazolo[3,4-d]pyrimidin-6-yl)amino)-3,4-dihydroisoquinolin-2 (1H)-yl)-2-oxoethyl)amino)methyl)-1-oxoisoindolin-2-yl)piperidin-2,6-one], the DC50 lay in the range of 0.1 to 10 nM.
